Among the data in the supplement of paper PMC10883282 are relative viability values, retold here.

The structures appear in SMILES notation. ± gives the standard deviation of the averaged measurements.

The test system of the test is SW1353. Nature of the test: relative viability vs DMSO control (72 h) (fraction); higher = more viable cells. In a few lines: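 Serially diluted compound, 2.5 µl from source plates spanning 10 mM to 0.0002 mM, was added 24 h after sarcoma cell lines were seeded in 384-well plates at densities targeting 80–90% confluence. Plates then sat 72 h at 37 °C, 5% CO2, with 0.1% DMSO vehicle and a 5 µM positive control. Relative viability came from ATPLite as percent growth, averaged over up to triplicate wells, and was rescaled with 1 as full and 0 as none.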

For `C[C@]1(O)C[C@@H](c2nc(-c3ccc4ccc(-c5ccccc5)nc4c3)c3c(N)nccn32)C1` [Linsitinib], the relative viability by setting is: (0.00017 µM) 1.03 ± 0.017; (0.00051 µM) 1 ± 0.024; (0.00152 µM) 1.03 ± 0.03; (0.00457 µM) 0.977 ± 0.024; (0.01372 µM) 1.03 ± 0.017; (0.04115 µM) 1.01 ± 0.014. Moreover, the relative viability amounted to 0.978 ± 0.041 (0.1235 µM); 0.967 ± 0.029 (0.3704 µM); 0.9847 ± 0.0087 (1.111 µM); 0.949 ± 0.05 (3.333 µM); 0.866 ± 0.024 (10 µM).

In the case of `C=CC(=O)N1CCC([C@@H]2CCNc3c(C(N)=O)c(-c4ccc(Oc5ccccc5)cc4)nn32)CC1` [Zanubrutinib], the relative viability (0.00017 µM) was 1.07 ± 0.066; the relative viability (0.00051 µM) is 1.05 ± 0.048; the relative viability (0.00152 µM) was found to be 1.04 ± 0.034; the relative viability (0.00457 µM) stood at 1.03 ± 0.038; the relative viability (0.01372 µM) was 1.03 ± 0.044; the relative viability (0.04115 µM) was 1.03 ± 0.044. In addition, the relative viability is, setting by setting: (0.1235 µM) 1.02 ± 0.029; (0.3704 µM) 0.965 ± 0.034; (1.111 µM) 0.917 ± 0.057; (3.333 µM) 0.828 ± 0.041; (10 µM) 0.657 ± 0.023.

Consider `Cn1cc(-c2cc3c(N4CCN(c5ncc([C@@](C)(N)c6ccc(F)cc6)cn5)CC4)ncnn3c2)cn1` [Avapritinib], for which the relative viability by setting is: (0.00017 µM) 0.96 ± 0.072; (0.00051 µM) 0.905 ± 0.043; (0.00152 µM) 0.894 ± 0.057; (0.00457 µM) 0.92 ± 0.012; (0.01372 µM) 0.894 ± 0.04; (0.04115 µM) 0.883 ± 0.051. The relative viability is, setting by setting: (0.1235 µM) 0.871 ± 0.036; (0.3704 µM) 0.819 ± 0.04; (1.111 µM) 0.819 ± 0.02; (3.333 µM) 0.776 ± 0.03; (10 µM) 0.715 ± 0.042.

For `CC(=O)Nc1cccc(-n2c(=O)n(C3CC3)c(=O)c3c(Nc4ccc(I)cc4F)n(C)c(=O)c(C)c32)c1` [Trametinib], the relative viability is, setting by setting: (0.00017 µM) 1.02 ± 0.025; (0.00051 µM) 1.01 ± 0.034; (0.00152 µM) 0.942 ± 0.024; (0.00457 µM) 0.862 ± 0.014; (0.01372 µM) 0.745 ± 0.014; (0.04115 µM) 0.69 ± 0.031. Moreover, the relative viability amounted to 0.642 ± 0.029 (0.1235 µM); 0.613 ± 0.012 (0.3704 µM); 0.571 ± 0.025 (1.111 µM); 0.5524 ± 0.0038 (3.333 µM); 0.509 ± 0.019 (10 µM).
